Results published in US10344330B2, “Glatiramer acetate response biomarker mRNA potency assay” (Mylan Inc., priority 2013, dated 2019).
“And” between values parts separate entries of the source, which are not always exact repeats. Identical values can stand only once.

What was measured:
[1] = test system: mIL-2 mRNA in LN cells; test: mIL-2 mRNA in LN cells of Copaxone P53974-immunized CSJLF1/JRj mice, three identical experiments, GAPDH and β-actin reference (Example VII); format: cell-based, mouse; conditions: 2.5 μg/mL, 6 hours
Method: (§1) A real-time polymerase chain reaction method was used to measure the expression of IL-2, IL-4, IL-5, and IL-13 mRNA in GA-stimulated LN cells from GA-immunized mice. Three identical experiments were carried out. In each experiment, mice were immunized with GA, and LN cells from each group of mice were stimulated with each of six concentrations of the same batch of GA used for immunization. GAPDH and β-actin were used as reference genes.
(§2) Each of the three groups consisted of four female CSJLF1/JRj (Janvier Labs) mice, approximately 8-12 weeks of age. On Day 0, mice were immunized by injection of 0.1 mL injection volume into four footpads (about 10 μL into each of the front footpad, 40 μL into each of the hind footpad). The immunization contained a total dose of 250 μg of one lot of GA (Copaxone batch P53974)+CFA (0.5 mg/mL). On Day 10 post-immunization, lymph cells were isolated from animals and stimulated with enriched DCCM-1 (mock-stimulated vehicle control), 2.5 μg/mL Concanavalin A (ConA, a positive control) or GA.
(§3) Ten days following immunization, LN cell samples isolated from the immunized mice each were stimulated with 0.3, 1, 2.5, 5, 10, or 20 μg/mL of Copaxone batch P53974 as shown in Table 43.
(§4) Total RNA was isolated from stimulated LN cells after 6 hours of incubation at about 37° C. in a humidified CO2 incubator, using the SV 96 Total RNA Isolation System according to the manufacturer's protocol (Promega, Cat. #Z3500). cDNA was synthesized from each RNA sample in triplicate using High Capacity cDNA Reverse Transcription Kit (Life Technologies, formerly Applied Biosystems) according to the manufacturer's protocol.
(§5) Samples were prepared using TaqMan Universal PCR Master Mix II (Life Technologies) and run in 96-well plates using a Real-Time PCR system (7500, Life Technologies) using the following program for Real-Time PCR:
(§6) The levels of cytokine mRNA were calculated using a standard ΔΔCT method as described previously.

[2] = test system: mouse CD25 (IL-2ra) mRNA in primary LN cells; test: Mouse CD25 mRNA in LN cells of Copaxone P53974-immunized CSJLF1/JRj mice stimulated with GA lots (Example VIII); format: cell-based; conditions: stimulation conc. 2.5 μg/mL, relative to DCCM1 medium control
Method: [The procedure below names another target; the source lists this target under the same test.] (§7) A real-time polymerase chain reaction method was used to measure the expression of IL-2, IL-4, IL-5, and IL-13 mRNA in LN cells, from GA-immunized mice, following stimulation with one of twelve GA lots. One lot of GA (Copaxone P53974) was used for immunization. […] Twenty female CSJLF1/JRj mice (Janvier Labs), approximately 8-12 weeks of age, were immunized by injection of 0.1 mL injection volume into four footpads (about 10 μL into each of the front footpad, 40 μL into each of the hind footpad) on Day 0. […] Samples were prepared using TaqMan Universal PCR Master Mix II (Life Technologies) and run in 96-well plates using a Real-Time PCR system (7500, Life Technologies) using the following RT-PCR program: The levels of cytokine mRNA were calculated using a standard ΔΔCT method as described previously.

[3] = test system: mIL-4 mRNA in LN cells; test: mIL-4 mRNA in LN cells of Copaxone P53974-immunized CSJLF1/JRj mice, three identical experiments (Example VII); format: cell-based, mouse; conditions: 2.5 μg/mL, 6 hours
Method: as §1, §2, §3, §4, §5, §6

[4] = test system: mIL-5 mRNA in LN cells; test: mIL-5 mRNA in LN cells of Copaxone P53974-immunized CSJLF1/JRj mice, three identical experiments (Example VII); format: cell-based, mouse; conditions: 2.5 μg/mL, 6 hours
Method: as §1, §2, §3, §4, §5, §6

[5] = test system: mouse IL-2 mRNA in primary LN cells; test: Mouse IL-2 mRNA in LN cells of Copaxone P53974-immunized CSJLF1/JRj mice stimulated with twelve GA lots (Example VIII); format: cell-based
Method: as §7

[6] = test system: mouse IL-5 mRNA in primary LN cells; test: Mouse IL-5 mRNA in LN cells of Copaxone P53974-immunized CSJLF1/JRj mice stimulated with twelve GA lots (Example VIII); format: cell-based; conditions: stimulation conc. 2.5 μg/mL; for IL-5 mRNA/GAPDH Fold Change: normalized to GAPDH
Method: as §7

[7] = test system: mouse IL-13 mRNA in primary LN cells; test: Mouse IL-13 mRNA in LN cells of Copaxone P53974-immunized CSJLF1/JRj mice stimulated with twelve GA lots (Example VIII); format: cell-based; conditions: stimulation conc. 2.5 μg/mL; normalized to B-Actin
Method: as §7

[8] = test system: mIL-13 mRNA in LN cells; test: mIL-13 mRNA in LN cells of Copaxone P53974-immunized CSJLF1/JRj mice, three identical experiments (Example VII); format: cell-based, mouse; conditions: 2.5 μg/mL, 6 hours
Method: as §1, §2, §3, §4, §5, §6

[9] = test system: secreted IL-2; test: Secreted IL-2 from treated LN cells (other experiments, data not shown); format: cell-based, mouse; conditions: increasing concentrations
From the text: This dose-dependent response was consistent for both test and reference compounds independent of whether Copaxone® or Mylan GMA was used as the immunizing antigen.

[10] = Plate 1, positive control 2.5 μg/mL listed in the C1 section
[11] = Plate 1, positive control 2.5 μg/mL listed in the C2 section
[12] = Plate 1, positive control 2.5 μg/mL listed in the C3 section

Substance: Concanavalin A [ConA, reference compound]
- IL-2 mRNA/Actβ Fold Change ([1]; Group 1): 157.7 fold
- IL-2 mRNA/GAPDH Fold Change ([1]; Group 1): 102.9 fold
- IL-2 mRNA/Actβ Fold Change ([1]; Group 2): 137.4 fold
- IL-2 mRNA/GAPDH Fold Change ([1]; Group 2): 122.2 fold
- IL-2 mRNA/Actβ Fold Change ([1]; Group 3): 91.7 fold
- IL-2 mRNA/GAPDH Fold Change ([1]; Group 3): 55.8 fold
- CD25 mRNA/B-Actin Fold Change ([2]; normalized to B-Actin): 4.1 and 5.6 and 4.7 and 5.2 and 5.0 and 5.1
- CD25 mRNA/GAPDH Fold Change ([2]; normalized to GAPDH): 3.6 and 4.4 and 4.5 and 5.6 and 4.8 and 4.6 and 4.7
- IL-4 mRNA/Actβ Fold Change ([3]; Group 1): 54.5 fold
- IL-4 mRNA/GAPDH Fold Change ([3]; Group 1): 35.6 fold
- IL-4 mRNA/Actβ Fold Change ([3]; Group 2): 38.5 fold
- IL-4 mRNA/GAPDH Fold Change ([3]; Group 2): 34.2 fold
- IL-4 mRNA/Actβ Fold Change ([3]; Group 3): 35.7 fold
- IL-4 mRNA/GAPDH Fold Change ([3]; Group 3): 21.8 fold
- IL-5 mRNA/Actβ Fold Change ([4]; Group 1): 16.6 fold
- IL-5 mRNA/GAPDH Fold Change ([4]; Group 1): 12.0 fold
- IL-5 mRNA/Actβ Fold Change ([4]; Group 2): 25.4 fold
- IL-5 mRNA/GAPDH Fold Change ([4]; Group 2): 21.4 fold
- IL-5 mRNA/Actβ Fold Change ([4]; Group 3): 12.4 fold
- IL-5 mRNA/GAPDH Fold Change ([4]; Group 3): 8.6 fold
- IL-2 mRNA/B-Actin Fold Change [5, 10]: 118.1 fold
- IL-2 mRNA/GAPDH Fold Change [5, 10]: 116.9 fold
- IL-2 mRNA/B-Actin Fold Change [5, 11]: 111.2 fold
- IL-2 mRNA/GAPDH Fold Change [5, 11]: 103.7 fold
- IL-2 mRNA/B-Actin Fold Change [5, 12]: 105.2 fold
- IL-2 mRNA/GAPDH Fold Change [5, 12]: 87.6 fold
- IL-2 mRNA/B-Actin Fold Change ([5]; stimulation conc. 2.5 μg/mL, normalized to B-Actin): 109.3 fold and 120.1 fold and 75.2 fold and 81.3 fold and 103.6 fold and 101.9 fold and 92.2 fold and 98.9 fold
- IL-2 mRNA/B-Actin Fold Change ([5]; stimulation conc. 2.5 μg/mL, normalized to B-Actin, ΔΔCT): 106.7 fold and 96.2 fold and 103.1 fold and 120.5 fold and 121.8 fold
- IL-2 mRNA/GAPDH Fold Change ([5]; stimulation conc. 2.5 μg/mL, normalized to GAPDH): 103.2 fold and 111.7 fold and 82.0 fold and 84.8 fold and 158.0 fold and 127.7 fold and 102.6 fold and 127.5 fold
- IL-2 mRNA/GAPDH Fold Change ([5]; stimulation conc. 2.5 μg/mL, normalized to GAPDH, ΔΔCT): 100.3 fold and 92.7 fold and 99.8 fold and 147.4 fold and 131.3 fold
- IL-5 mRNA/B-Actin Fold Change ([6]; normalized to B-Actin): 23.6 fold and 20.9 fold and 21.3 fold and 21.4 fold
- IL-5 mRNA/GAPDH Fold Change [6]: 23.6 fold and 20.0 fold and 20.6 fold and 22.3 fold
- IL-5 mRNA/GAPDH Fold Change ([6]; ΔΔCT): 25.7 fold and 32.7 fold and 22.2 fold and 20.8 fold and 26.0 fold and 25.2 fold and 30.3 fold and 29.3 fold
- IL-13 mRNA/B-Actin Fold Change [7]: 29.3 fold
- IL-13 mRNA/Actβ Fold Change ([8]; Group 1): 33.3 fold
- IL-13 mRNA/GAPDH Fold Change ([8]; Group 1): 24.1 fold
- IL-13 mRNA/Actβ Fold Change ([8]; Group 2): 28.4 fold
- IL-13 mRNA/GAPDH Fold Change ([8]; Group 2): 23.8 fold
- IL-13 mRNA/Actβ Fold Change ([8]; Group 3): 25.7 fold
- IL-13 mRNA/GAPDH Fold Change ([8]; Group 3): 17.8 fold

Substance: L-glutamic acid polymer with L-alanine, L-lysine and L-tyrosine, acetate (salt) [GA]
- secreted IL-2 from treated cells [9]: increased in dose-dependent fashion
